The values that follow come from article PMC11394972 (International Journal of Molecular Sciences, 2024).

In the test the test system is MazF-mt3. It counts as biochemical, Mycobacterium tuberculosis. As to conditions: FAM-labeled 13-nt RNA substrate, 37 °C, 30 min.

Consider “MazE-mt3 α3–α4: peptide corresponding to the last two helices (α3-α4, Leu46-Trp82) of MazE-mt3; cocrystallized with MazF-mt3 (PDB 8ZWS) (LTGQIDRALESIHGTDEAEALAVANAYRVLETMDDEW)”, for which the “reduction of the cleavage of the WT MazF-mt3 enzyme” value (Figure 4A) is reported as 15%.

B1: MazE-mt3: full-length antitoxin of the M. tb MazEF-mt3 toxin–antitoxin pair, recombinantly expressed (protein)
chain: MKTAISLPDETFDRVSRRASELGMSRSEFFTKAAQRYLHELDAQLLTGQIDRALESIHGTDEAEALAVANAYRVLETMDDEW
modifications: left off: His tag, end not stated, state not stated
notes: full-length antitoxin of the M. tb MazEF-mt3 toxin–antitoxin pair, recombinantly expressed
For the molecule B1, where the note is “20 mM Tris-HCl pH 8.0, 150 mM NaCl, urea-PAGE, Figure S8”, the “suppression of the cleavage activity of MazF-mt3” value was “fully suppress”.
